Source: PMC9644403, “L-type Amino Acid Transporter 1 Utilizing Ferulic Acid Derivatives Show Increased Drug Delivery in the Mouse Pancreas Along with Decreased Lipid Peroxidation and Prostaglandin Production” (Molecular Pharmaceutics, 2022)
Like-named read-outs stand apart in the source and are kept apart here.

Experiments:
[1] = In vivo pharmacokinetics in mouse pancreas, liver and kidney after i.p. bolus; details: 25 μmol/kg i.p.; for Cmax kidney / Cmax liver / Cmax pancreas / AUCtotal kidney / AUCtotal liver / AUCtotal pancreas / Kp / half-life / Kp,uu (unbound tissue-to-plasma AUC ratio) / Tmax / AUCu, kidney / AUCu, liver / AUCu, pancreas / Cmax, u kidney / Cmax, u liver / Cmax, u pancreas: mice; for AUCtotal kidney / AUCtotal liver / AUCtotal pancreas: n = 3; for Kp / half-life / Kp,uu (unbound tissue-to-plasma AUC ratio) / Tmax: mouse, ip, 25 umol/kg; for Kp: tissue/plasma partition coefficient (eq 2); for half-life: elimination half-life; for AUCu, kidney / AUCu, liver / AUCu, pancreas: unbound (eq 3); for Cmax, u kidney / Cmax, u liver / Cmax, u pancreas: unbound
Procedure: The pharmacokinetic study of FA, D1, and D2 was performed as previously described,[17] in which the pharmacokinetic parameters for the plasma and brain have been reported. Briefly, the studied compounds were dissolved in a vehicle containing 0.9% (w/v) NaCl in water, and a dose of 25 μmol/kg of the FA, D1, or D2 (n = 3 per compound at each time point) was administered as a bolus intraperitoneal (i.p.) injection for mice. The mice were anesthetized using a mixture of ketamine (140 mg/kg) and xylazine (8 mg/kg) and sacrificed by decapitation at selected time points between 10 and 360 min. The kidney, liver, and pancreas were rapidly collected, snap-frozen on dry ice, and stored at −80 °C until analyzed.
The frozen tissues were weighed and homogenized with ultrapure water (1:3 w/v) by sonicating twice for 5 s with the SoniPrep 150 Plus disintegrator (MSE Ltd., London, UK). The proteins were precipitated by diluting homogenate 1:3 (v/v) with acetonitrile containing the internal standards—chlorzoxazone for FA and diclofenac for derivatives. Samples were then centrifuged at 14 000 × g for 10 min at 4 °C. Supernatants were collected and diluted further 1:1 with ultrapure water and transferred into HPLC vials for the analysis by liquid chromatography-tandem mass spectrometry (LC–MS/MS).
Drug concentrations were analyzed using the LC–MS/MS method described previously,[17] with minor changes. Briefly, the analysis was carried out with an Agilent 1200 Series Rapid Resolution LC System with an Agilent Zorbax XBD-C18 rapid resolution high-throughput (RRHT) column (50 mm × 4.6 mm, 1.8 μm) and an Agilent 6410 triple quadrupole mass spectrometer equipped with an electrospray ionization source (Agilent Technologies, Palo Alto, CA, USA). The LC eluents were water (eluent A) and acetonitrile (eluent B), both containing 0.1% (v/v) formic acid. FA was separated with the following gradient: 0–1 min: 5% B, 1–2 min: 5% B → 90%, 2–4 min: 90% B, 4–4.1 min: 90% B → 5%, and 4.1–7 min: 5% B. For the derivatives, the gradient was as follows: 0–1 min: 10% B, 1–2 min: 10% B → 90%, 2–5 min: 90% B, 5–5.1 min: 90% B → 10%, and 5.1–8 min: 10% B. In both methods, the LC flow rate was 0.3 mL/min, the column temperature was set to 40 °C, and the sample injection volume was 5 μL.
The LC–MS/MS data acquisition for the FA was performed in a negative ion mode with the following conditions: drying gas flow 6.5 l/min with the temperature of 300 °C, nebulizer gas pressure of 20 psi, and capillary voltage of 4 000 V. MRM transitions were 193 → 149 for FA and 168 → 132 for chlorzoxazone. Fragmentor voltages were 100 and 120 V, respectively, and the collision energy was 20 V for both. For D1 and D2, the analysis was performed in a positive ion mode with the following conditions: drying gas flow of 6.5 l/min with the temperature of 300 °C, nebulizer gas pressure of 20 psi, and capillary voltage of 3 000 V. MRM transitions were 371 → 176.8 for D1, 357 → 310.9 for D2, and 296 → 250 for the diclofenac. The fragmentor voltages were 60, 40, and 100 V, and the collision energies were 16, 8, and 10 V, respectively. The data acquisition software was Agilent MassHunter Workstation software (version B.03.01), whereas Quantitative Analysis (B.09.00) software was used for data processing and analysis. The lower limit of quantification for the FA was 0.05 nmol/g and was 0.01 nmol/g for derivatives. The methods were linear, selective, accurate, and precise in the calibration range of 0.05–300 nmol/g for FA and 0.01–300 nmol/g for derivatives.
The time–concentration profiles for studied drugs were calculated using GraphPad Prism v. 5.03 software (GraphPad Software, San Diego, CA, USA). The area under curve (AUC) was calculated using the linear trapezoidal method, providing simultaneously the numeric pharmacokinetic parameters, such as tmax and Cmax. The half-life of elimination (t1/2β) was calculated from a logarithmic slope based on at least the last three detected timepoints. […]

[2] = mice, cited from earlier work; for AUCtotal plasma: 25 μmol/kg i.p. bolus; for peak concentration in plasma: after a high bolus dose (25 μmol/kg i.p.); for Cmax: read-out: Cmax plasma; for AUCu, plasma / Cmax, u plasma: unbound
[3] = Non-specific binding in S9 fractions of mouse liver, kidney and pancreas homogenates, rapid equilibrium dialysis; type: in vitro ADME; details: for fraction unbound at 4 h, 50 μM: pH 7.4, 37 °C, mean ± SD (n = 3); for unbound (free) portion, range over liver, kidney and pancreas: range over the studied mouse tissues
Procedure: The unbound fractions of FA, D1, and D2 were determined in the S9 subcellular fractions of the mouse liver, kidneys, and pancreas using rapid equilibrium dialysis (RED) plates (Thermo Fisher Scientific, Inc., Waltham, MA, USA). Briefly, the studied compounds were spiked at a 50 μM concentration into 100 μL of mouse homogenate S9 subcellular fraction and transferred to the reaction chamber. Homogenate dilutions were 1:4 (w/v) for the liver and kidney, and 1:20 (w/v) for the pancreas. A total of 350 μL of TBS (pH 7.4) buffer was added to the buffer chamber of the RED plate. The dialysis plate was incubated at 37 °C with shaking for 4 h. Samples of 50 μL were collected from both the reaction and buffer chambers, and equal amounts of buffer and S9 fraction were added to the collected samples, respectively, to yield identical sample matrices. The proteins were precipitated by diluting samples with 100 μL of ice-cold acetonitrile. Samples were centrifuged at 12 000 × g for 10 min, and the supernatants were collected for HPLC analysis.
The unbound fraction (fu,tissue) of the FA and its derivatives was calculated using eq 1 [drawing 1] 1 where D is the dilution factor of studied tissue homogenate, and fu,homogenate is the distribution ratio of the studied compound measured in the reaction and buffer chambers within the equilibrium dialysis assay.[29]

[4] = kidney, read-out: t1/2β, kidney
[5] = kidney, read-out: AUCu, kidney/AUCu plasma
[6] = kidney, read-out: tmax kidney (converted)
[7] = liver, read-out: AUCu, liver/AUCu plasma
[8] = liver, read-out: tmax liver (converted)
[9] = pancreas, read-out: Kp, pancreas
[10] = pancreas, read-out: AUCu, pancreas/AUCu plasma
[11] = pancreas, read-out: tmax pancreas (converted)
[12] = S9 subcellular fraction of kidney homogenate, mouse kidney S9, 50 μM, read-out: fu, kidney (%)
[13] = S9 subcellular fraction of liver homogenate, mouse liver S9, 50 μM, read-out: fu, liver (%)
[14] = S9 subcellular fraction of pancreas homogenate, mouse pancreas S9, 50 μM, read-out: fu, pancreas (%)
[15] = FA released from the dosed derivative, 25 μmol/kg i.p.

| Compound | Cmax kidney [1] [nmol/g] | Cmax liver [1] [nmol/g] | Cmax pancreas [1] [nmol/g] | AUCtotal kidney [1] [nmol·min/g] | AUCtotal liver [1] | AUCtotal pancreas [1] | Kp ([1]; kidney, read-out: Kp, kidney) | half-life [1, 4] [min] | Kp,uu (unbound tissue-to-plasma AUC ratio) [1, 5] | Tmax [1, 6] [min] | Kp ([1]; liver, read-out: Kp, liver) | half-life ([1]; liver, read-out: t1/2β, liver) [min] | Kp,uu (unbound tissue-to-plasma AUC ratio) [1, 7] | Tmax [1, 8] [min] | Kp [1, 9] | Kp,uu (unbound tissue-to-plasma AUC ratio) [1, 10] | Tmax [1, 11] [min] | AUCu, kidney [1] [nmol·min/g] | AUCu, liver [1] [nmol·min/g] | AUCu, pancreas [1] | also measured |
| --- | --- | --- | --- | --- | --- | --- | --- | --- | --- | --- | --- | --- | --- | --- | --- | --- | --- | --- | --- | --- | --- |
| COc1cc(C=CC(=O)O)ccc1O [ferulic acid, 4-hydroxy-3-methoxycinnamic acid] | 14.4 | 18.0 | 5.4 | 140 | 408 nmol·min/g | 40.1 nmol·min/g | 0.24 | 3.4 | 2.21 | 10 | 0.69 | 11.2 | 5.5 | 10 | 0.07 | 0.64 | 10 | 139 | 347 | 40.1 nmol·min/g | Cmax, u kidney [1]: 14.3 nmol/g; Cmax, u liver [1]: 15.3 nmol/g; Cmax, u pancreas [1]: 5.4 nmol/g; AUCtotal plasma [2]: 591 nmol·min/mL; tmax plasma ([2]; 25 μmol/kg i.p.): 10 min; peak concentration in plasma [2]: 33.2 µM; Cmax ([2]; 25 μmol/kg i.p.): 33.2 µM; AUCu, plasma ([2]; 25 μmol/kg i.p.): 63 nmol·min/mL; Cmax, u plasma ([2]; 25 μmol/kg i.p.): 3.6 µM; fraction unbound at 4 h, 50 μM [3, 12]: 0.991 ± 0.105; fraction unbound at 4 h, 50 μM [3, 13]: 0.849 ± 0.145; fraction unbound at 4 h, 50 μM [3, 14]: 0.993 ± 0.0196; unbound (free) portion, range over liver, kidney and pancreas [3]: 84.94–99.30% |
| COc1cc(C=CC(=O)NCc2cccc(CC(N)C(=O)O)c2)ccc1O (centres unmarked) [derivative 1] | 20.4 | 44.3 | 168 | 415 | 1 769 nmol/g × min | 5 182 nmol/g × min | 0.4 | 11.8 | 0.74 | 10 | 1.7 | 11.7 | 2.9 | 10 | 4.97 | 5.54 | 10 | 194 | 752 | 1 452 nmol/g × min | pancreas AUC, times higher in comparison to the original FA ([1]; mouse pancreas): 129.2 times; half-life ([1]; pancreas, read-out: t1/2β, pancreas): 9.9 min; Cmax, u kidney [1]: 9.6 nmol/g; Cmax, u liver [1]: 18.8 nmol/g; Cmax, u pancreas [1]: 47.1 nmol/g; AUCtotal plasma of released FA [2, 15]: 507 nmol·min/mL; AUCu, plasma of released FA [2, 15]: 54 nmol·min/mL; Cmax, u plasma of released FA [2, 15]: 0.3 µM; AUCtotal plasma [2]: 1042 nmol·min/mL; tmax plasma ([2]; 25 μmol/kg i.p.): 10 min; peak concentration in plasma [2]: 41.9 µM; Cmax ([2]; 25 μmol/kg i.p.): 41.9 µM; AUCu, plasma ([2]; 25 μmol/kg i.p.): 262 nmol·min/mL; Cmax, u plasma ([2]; 25 μmol/kg i.p.): 10.5 µM; fraction unbound at 4 h, 50 μM [3, 12]: 0.469 ± 0.0593; fraction unbound at 4 h, 50 μM [3, 13]: 0.425 ± 0.0544; fraction unbound at 4 h, 50 μM [3, 14]: 0.28 ± 0.0147; unbound (free) portion, range over liver, kidney and pancreas [3]: 28.02–46.85% |
